Results on one compound are retold here after ChEMBL document CHEMBL1158599, “(2S,4S)-1-[2-(1,1-dimethyl-3-oxo-3-pyrrolidin-1-yl-propylamino)acetyl]-4-fluoro-pyrrolidine-2-carbonitrile: a potent, selective, and orally bioavailable dipeptide-derived inhibitor of dipeptidyl peptidase IV” (Bioorg Med Chem Lett, 2010).

In data set [1] the target is T1, Dipeptidyl peptidase 4 (Homo sapiens, UniProt P27487).
In data set [2] the target is Dipeptidyl peptidase 8 (Homo sapiens, UniProt Q6V1X1).
The target in data set [3] is T2, Pro-cathepsin H (Homo sapiens) (UniProt P09668).
T2 sequence (whole entry): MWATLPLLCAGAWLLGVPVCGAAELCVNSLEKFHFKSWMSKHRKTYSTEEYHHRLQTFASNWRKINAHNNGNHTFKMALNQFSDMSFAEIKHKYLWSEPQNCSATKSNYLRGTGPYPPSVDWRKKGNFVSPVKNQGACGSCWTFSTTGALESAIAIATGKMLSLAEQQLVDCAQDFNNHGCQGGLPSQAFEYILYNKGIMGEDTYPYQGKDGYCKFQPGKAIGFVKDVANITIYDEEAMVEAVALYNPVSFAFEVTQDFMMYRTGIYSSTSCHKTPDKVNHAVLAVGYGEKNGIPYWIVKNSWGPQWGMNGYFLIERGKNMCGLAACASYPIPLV
The data set can be described thus: Inhibition of cathepsin H at 10 uM.

The species entered for data set [4] is Rattus norvegicus. In words: animal or person. To be noted: Plasma, po, 0.5 h, read-out: INH.
Data set [5] is described as follows: Inhibition of L-type calcium channel. To be noted: concentration not given here.
Data set [6] concerns the target Cathepsin B (Homo sapiens) (UniProt P07858). In words: Inhibition of cathepsin B at 10 uM.
Data set [7] deals with T3, Caspase-1 (Homo sapiens) (UniProt P29466).
T3 sequence (whole entry): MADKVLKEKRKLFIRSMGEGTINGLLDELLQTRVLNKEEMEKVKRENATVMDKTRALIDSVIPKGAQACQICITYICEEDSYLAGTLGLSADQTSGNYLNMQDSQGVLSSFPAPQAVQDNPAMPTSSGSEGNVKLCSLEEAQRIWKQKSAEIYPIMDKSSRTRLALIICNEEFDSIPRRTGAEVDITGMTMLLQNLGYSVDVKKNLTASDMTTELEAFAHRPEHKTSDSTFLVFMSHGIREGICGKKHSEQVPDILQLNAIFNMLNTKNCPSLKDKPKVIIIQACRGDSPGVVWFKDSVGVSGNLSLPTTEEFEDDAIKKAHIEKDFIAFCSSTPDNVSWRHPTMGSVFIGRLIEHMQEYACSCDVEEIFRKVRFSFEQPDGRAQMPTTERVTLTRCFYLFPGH
The data set can be described thus: Inhibition of caspase1 at 10 uM.

For data set [8], the target named is T4, Caspase-10 (Homo sapiens) (UniProt Q92851).
T4 sequence (whole entry): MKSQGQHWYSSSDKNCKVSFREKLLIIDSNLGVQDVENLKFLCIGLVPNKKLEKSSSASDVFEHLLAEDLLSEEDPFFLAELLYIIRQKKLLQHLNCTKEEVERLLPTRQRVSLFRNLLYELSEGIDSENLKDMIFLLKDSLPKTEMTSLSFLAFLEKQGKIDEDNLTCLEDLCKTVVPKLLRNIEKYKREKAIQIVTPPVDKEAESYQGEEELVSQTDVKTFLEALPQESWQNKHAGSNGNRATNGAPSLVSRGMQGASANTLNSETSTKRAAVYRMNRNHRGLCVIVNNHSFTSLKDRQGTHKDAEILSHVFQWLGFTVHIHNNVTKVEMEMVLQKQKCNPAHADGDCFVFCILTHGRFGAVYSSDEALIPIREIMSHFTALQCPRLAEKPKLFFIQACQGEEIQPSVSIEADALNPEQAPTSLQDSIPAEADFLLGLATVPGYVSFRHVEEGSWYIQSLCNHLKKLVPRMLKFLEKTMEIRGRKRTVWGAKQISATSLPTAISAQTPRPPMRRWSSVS
The data set can be described thus: Inhibition of caspase 10 at 10 uM.

Data set [9] has as its target Voltage-gated inwardly rectifying potassium channel KCNH2 (Homo sapiens, UniProt Q12809). In words: Inhibition of human ERG.
A short description of data set [10]: Oral bioavailability in dog. Type of data set: ADME, organism-based, Canis lupus familiaris. Particulars: in vivo.
The target of data set [11] is T1, Dipeptidyl peptidase 4. This is another data set of the same source.
The nature of data set [12]: Oral bioavailability in rat. It counts as ADME, organism-based. Particulars: in vivo.
The target of data set [13] is Dipeptidyl peptidase 9 (Homo sapiens, UniProt Q86TI2). In words: Inhibition of DPP9.
Chain of Dipeptidyl peptidase 9 (Q86TI2 whole entry): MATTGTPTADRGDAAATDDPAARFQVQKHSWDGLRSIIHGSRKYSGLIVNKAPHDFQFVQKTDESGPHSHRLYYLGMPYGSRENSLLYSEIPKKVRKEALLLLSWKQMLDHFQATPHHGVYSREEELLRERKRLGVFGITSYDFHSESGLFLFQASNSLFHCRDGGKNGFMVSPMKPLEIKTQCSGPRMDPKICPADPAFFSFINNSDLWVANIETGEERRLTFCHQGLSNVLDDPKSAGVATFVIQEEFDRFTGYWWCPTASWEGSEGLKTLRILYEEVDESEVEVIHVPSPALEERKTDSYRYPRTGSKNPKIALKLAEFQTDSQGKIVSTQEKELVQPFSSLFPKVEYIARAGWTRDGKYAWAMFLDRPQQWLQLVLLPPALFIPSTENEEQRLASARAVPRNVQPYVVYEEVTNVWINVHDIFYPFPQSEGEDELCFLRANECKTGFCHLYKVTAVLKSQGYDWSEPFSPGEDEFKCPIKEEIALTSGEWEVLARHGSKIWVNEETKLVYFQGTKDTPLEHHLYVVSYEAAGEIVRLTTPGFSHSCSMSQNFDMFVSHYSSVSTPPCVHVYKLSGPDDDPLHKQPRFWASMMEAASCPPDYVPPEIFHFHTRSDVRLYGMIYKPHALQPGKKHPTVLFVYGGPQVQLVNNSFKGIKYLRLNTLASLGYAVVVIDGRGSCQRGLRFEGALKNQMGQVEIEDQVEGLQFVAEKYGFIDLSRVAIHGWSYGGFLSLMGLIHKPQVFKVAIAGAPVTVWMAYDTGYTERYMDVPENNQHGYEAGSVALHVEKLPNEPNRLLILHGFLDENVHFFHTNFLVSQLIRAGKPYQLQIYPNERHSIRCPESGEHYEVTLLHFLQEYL
Data set [14] is described as follows: Inhibition of trypsin at 10 uM.
Data set [15] addresses Beta-secretase 1 (Homo sapiens) (UniProt P56817). The data set can be described thus: Inhibition of beta secretase at 10 uM.
Data set [16] has as its target T1, Dipeptidyl peptidase 4. The source holds these as a separate data set.
Data set [17] is filed under the species Rattus norvegicus. The data set can be described thus: animal or person. Particulars: Plasma, po, 8 h, read-out: INH.
For data set [18], the target named is Prothrombin (Homo sapiens) (UniProt P00734). The data set can be described thus: Inhibition of thrombin at 10 uM.
Data set [19] concerns the target Coagulation factor X (Homo sapiens) (UniProt P00742). The data set can be described thus: Inhibition of factor 10a at 10 uM.
Data set [20] is described as follows: Inhibition of sodium channel site 2. To be noted: concentration not given here.
The test system of data set [21] is Mus musculus. In words: Antihyperglycemic activity in C57BL/6J mouse assessed as reduction in blood glucose AUC at 3 mg/kg, po administered 30 mins before glucose challenge. It counts as functional. Set-up: scale not given: the % may be the effect or the level left.

T1 sequence (P27487 whole entry): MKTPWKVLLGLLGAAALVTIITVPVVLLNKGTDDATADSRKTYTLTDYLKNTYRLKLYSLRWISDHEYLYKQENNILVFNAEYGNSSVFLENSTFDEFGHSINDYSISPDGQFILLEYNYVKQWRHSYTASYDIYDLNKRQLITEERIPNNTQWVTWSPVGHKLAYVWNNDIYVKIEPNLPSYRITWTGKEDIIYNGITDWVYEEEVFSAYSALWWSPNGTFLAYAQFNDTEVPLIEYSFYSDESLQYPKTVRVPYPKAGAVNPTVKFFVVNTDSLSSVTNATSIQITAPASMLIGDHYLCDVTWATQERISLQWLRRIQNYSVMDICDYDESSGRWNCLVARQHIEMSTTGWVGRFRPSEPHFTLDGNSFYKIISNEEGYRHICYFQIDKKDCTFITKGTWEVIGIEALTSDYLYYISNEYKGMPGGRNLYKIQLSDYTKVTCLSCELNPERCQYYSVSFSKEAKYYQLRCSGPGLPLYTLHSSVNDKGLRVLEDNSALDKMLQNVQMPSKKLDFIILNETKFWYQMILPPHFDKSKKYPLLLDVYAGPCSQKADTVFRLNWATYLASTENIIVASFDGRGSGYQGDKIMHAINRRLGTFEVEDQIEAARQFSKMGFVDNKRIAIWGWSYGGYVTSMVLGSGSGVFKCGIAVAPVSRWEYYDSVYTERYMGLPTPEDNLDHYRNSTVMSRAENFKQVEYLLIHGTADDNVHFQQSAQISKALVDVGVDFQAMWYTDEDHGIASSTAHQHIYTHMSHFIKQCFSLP
Chain of Dipeptidyl peptidase 8 (Q6V1X1 whole entry): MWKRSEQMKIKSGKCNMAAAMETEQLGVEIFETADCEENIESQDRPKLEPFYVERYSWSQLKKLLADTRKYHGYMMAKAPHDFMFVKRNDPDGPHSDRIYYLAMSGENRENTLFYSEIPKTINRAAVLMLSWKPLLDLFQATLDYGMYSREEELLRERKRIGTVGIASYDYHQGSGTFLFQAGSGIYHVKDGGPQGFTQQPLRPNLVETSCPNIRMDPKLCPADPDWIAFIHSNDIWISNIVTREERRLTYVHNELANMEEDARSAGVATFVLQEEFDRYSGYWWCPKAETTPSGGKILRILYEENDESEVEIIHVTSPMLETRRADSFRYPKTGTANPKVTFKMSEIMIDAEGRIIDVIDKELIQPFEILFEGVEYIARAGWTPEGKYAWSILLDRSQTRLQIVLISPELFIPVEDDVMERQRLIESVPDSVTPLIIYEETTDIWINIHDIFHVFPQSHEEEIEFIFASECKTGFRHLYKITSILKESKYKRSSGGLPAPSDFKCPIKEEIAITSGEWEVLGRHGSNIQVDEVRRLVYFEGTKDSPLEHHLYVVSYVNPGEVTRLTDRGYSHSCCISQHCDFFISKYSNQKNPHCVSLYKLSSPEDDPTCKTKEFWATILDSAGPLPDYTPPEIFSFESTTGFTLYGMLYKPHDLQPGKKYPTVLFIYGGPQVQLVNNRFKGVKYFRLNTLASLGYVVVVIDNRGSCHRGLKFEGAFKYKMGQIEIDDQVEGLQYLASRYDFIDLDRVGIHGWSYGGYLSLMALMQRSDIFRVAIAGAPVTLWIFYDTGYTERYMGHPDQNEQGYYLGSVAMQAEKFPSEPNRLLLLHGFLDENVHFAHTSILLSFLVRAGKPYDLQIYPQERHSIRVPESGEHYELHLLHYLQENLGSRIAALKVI
Chain of Coagulation factor X (Homo sapiens) (P00742 41-179 limits assumed): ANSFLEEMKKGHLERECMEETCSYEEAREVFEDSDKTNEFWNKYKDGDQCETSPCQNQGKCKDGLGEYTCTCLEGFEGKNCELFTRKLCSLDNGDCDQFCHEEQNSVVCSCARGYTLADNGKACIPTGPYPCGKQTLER
Chain of Coagulation factor X (Homo sapiens) (P00742 235-488 limits assumed): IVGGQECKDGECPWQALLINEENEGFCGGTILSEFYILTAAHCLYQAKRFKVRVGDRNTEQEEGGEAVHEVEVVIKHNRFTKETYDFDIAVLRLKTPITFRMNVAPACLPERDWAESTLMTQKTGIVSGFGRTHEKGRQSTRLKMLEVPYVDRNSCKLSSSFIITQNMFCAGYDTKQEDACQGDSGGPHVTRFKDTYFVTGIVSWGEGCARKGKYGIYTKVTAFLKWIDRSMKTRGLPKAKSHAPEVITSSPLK
Chain of Beta-secretase 1 (Homo sapiens) (P56817 whole entry): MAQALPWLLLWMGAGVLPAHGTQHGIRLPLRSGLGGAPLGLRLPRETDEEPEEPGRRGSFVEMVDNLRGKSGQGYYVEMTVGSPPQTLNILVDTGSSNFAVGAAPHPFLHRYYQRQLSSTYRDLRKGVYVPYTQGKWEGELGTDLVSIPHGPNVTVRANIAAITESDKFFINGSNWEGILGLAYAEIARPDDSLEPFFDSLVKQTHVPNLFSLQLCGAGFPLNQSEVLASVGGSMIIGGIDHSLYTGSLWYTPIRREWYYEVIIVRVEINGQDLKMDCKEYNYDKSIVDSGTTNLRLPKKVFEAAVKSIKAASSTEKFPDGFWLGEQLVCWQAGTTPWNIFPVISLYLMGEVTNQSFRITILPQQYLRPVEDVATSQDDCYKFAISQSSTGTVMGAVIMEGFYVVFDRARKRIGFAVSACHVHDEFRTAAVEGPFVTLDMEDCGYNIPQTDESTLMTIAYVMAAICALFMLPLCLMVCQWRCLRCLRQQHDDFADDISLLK
Chain of Voltage-gated inwardly rectifying potassium channel KCNH2 (Q12809 whole entry): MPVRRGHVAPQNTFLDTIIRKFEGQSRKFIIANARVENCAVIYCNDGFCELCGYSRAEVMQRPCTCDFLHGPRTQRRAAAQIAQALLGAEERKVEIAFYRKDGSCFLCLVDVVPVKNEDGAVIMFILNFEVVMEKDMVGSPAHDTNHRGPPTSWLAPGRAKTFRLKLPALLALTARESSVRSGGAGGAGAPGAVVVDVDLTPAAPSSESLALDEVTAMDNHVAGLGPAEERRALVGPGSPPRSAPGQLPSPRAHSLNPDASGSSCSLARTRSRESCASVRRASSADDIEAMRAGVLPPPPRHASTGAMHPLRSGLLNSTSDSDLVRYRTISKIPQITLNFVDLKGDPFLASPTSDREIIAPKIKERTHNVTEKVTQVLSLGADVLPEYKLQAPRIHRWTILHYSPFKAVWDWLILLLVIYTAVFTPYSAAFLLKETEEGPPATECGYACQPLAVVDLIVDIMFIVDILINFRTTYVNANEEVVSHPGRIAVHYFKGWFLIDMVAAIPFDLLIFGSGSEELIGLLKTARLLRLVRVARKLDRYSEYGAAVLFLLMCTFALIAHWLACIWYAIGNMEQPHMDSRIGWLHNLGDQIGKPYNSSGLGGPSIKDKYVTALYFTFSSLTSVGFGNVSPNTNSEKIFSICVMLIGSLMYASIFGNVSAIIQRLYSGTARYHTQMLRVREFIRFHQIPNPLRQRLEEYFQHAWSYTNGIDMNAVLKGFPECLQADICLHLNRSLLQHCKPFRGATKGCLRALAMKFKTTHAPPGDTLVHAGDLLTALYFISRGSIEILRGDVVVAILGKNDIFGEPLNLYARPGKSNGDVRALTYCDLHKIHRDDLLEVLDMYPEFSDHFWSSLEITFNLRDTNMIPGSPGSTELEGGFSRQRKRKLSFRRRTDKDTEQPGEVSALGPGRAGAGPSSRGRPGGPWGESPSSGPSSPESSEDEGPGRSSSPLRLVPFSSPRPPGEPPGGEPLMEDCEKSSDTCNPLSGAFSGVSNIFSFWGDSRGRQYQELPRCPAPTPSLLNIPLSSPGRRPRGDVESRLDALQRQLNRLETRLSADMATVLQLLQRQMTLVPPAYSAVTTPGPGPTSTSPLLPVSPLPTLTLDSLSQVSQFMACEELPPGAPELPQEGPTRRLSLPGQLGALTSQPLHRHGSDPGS

For orientation: IC50 means the concentration that gives 50% inhibition. A word on the inhibition: it is the relative decrease from the control value, in per cent. As usually defined, the bioavailability is the share of a dose that reaches the circulation, judged against a reference dose that is usually intravenous. Regarding `CC(C)(CC(=O)N1CCCC1)NCC(=O)N1C[C@@H](F)C[C@H]1C#N` [DBPR-108], the IC50 is 15 nM in [1]; greater than 100000 nM in [2]; 5 nM in data set [11]; greater than 50000 nM in [13]; 10 nM in [16]. Moreover, the inhibition in data set [3] was 0%; in data set [5], -9%; in data set [6], -10%; in data set [7] it was 23%; in data set [8], 8%; in data set [14], 0%. For the same compound, the inhibition in data set [15] was 3%; in data set [18] it was -7%; in data set [19], 2%; in data set [20], 1%. The inhibition in vivo at 3 mg/kg came out at 82% in data set [4] and 70% in [17]. The “inhibition (INH)” value in data set [9] was -6%. Further, the bioavailability in data set [10] was 68%; in data set [12], 19%. Moreover, in [21], the Activity is reported as 67%.
